From article PMC5527824 (Frontiers in bioscience (Scholar edition), 2015)

Legend:
PC12 cells = settings: of ~30 flavonoids tested; cited from earlier work
[1] = test system: APPswe/PS1dE9 double transgenic AD mice; settings: AD mice 12 months of age, 0.05% in food; cited from earlier work
RAW264.7 macrophages = settings: RAW264.7, via increased MKP-1 levels; cited from earlier work
12-LOX = settings: fish gill; cited from earlier work
cytochrome P450 2C9 = cytochrome P450 2C9 (Homo sapiens, UniProt P11712); assay: cytochrome P450 2C9 inhibition; type: in vitro ADME; settings: at concentrations up to 10 μM; unpublished results
cytochrome P450 2C9, sequence (P11712 whole entry): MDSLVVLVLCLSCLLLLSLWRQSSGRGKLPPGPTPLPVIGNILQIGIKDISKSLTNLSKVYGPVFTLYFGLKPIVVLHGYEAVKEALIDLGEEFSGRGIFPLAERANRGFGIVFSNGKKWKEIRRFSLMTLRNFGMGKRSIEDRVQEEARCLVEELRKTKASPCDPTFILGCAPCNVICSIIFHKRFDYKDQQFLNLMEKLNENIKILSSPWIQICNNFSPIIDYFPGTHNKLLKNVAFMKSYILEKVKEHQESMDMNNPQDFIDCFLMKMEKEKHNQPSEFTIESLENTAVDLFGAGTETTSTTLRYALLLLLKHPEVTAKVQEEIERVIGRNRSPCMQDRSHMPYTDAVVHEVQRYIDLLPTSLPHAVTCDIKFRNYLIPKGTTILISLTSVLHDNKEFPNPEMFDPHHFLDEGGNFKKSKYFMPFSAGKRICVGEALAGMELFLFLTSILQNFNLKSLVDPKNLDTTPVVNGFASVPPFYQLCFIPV

cytochrome P450 3A4 = cytochrome P450 3A4 (Homo sapiens, UniProt P08684); assay: cytochrome P450 3A4 inhibition; type: in vitro ADME; settings: at concentrations up to 10 μM; unpublished results
cytochrome P450 3A4, sequence (P08684 whole entry): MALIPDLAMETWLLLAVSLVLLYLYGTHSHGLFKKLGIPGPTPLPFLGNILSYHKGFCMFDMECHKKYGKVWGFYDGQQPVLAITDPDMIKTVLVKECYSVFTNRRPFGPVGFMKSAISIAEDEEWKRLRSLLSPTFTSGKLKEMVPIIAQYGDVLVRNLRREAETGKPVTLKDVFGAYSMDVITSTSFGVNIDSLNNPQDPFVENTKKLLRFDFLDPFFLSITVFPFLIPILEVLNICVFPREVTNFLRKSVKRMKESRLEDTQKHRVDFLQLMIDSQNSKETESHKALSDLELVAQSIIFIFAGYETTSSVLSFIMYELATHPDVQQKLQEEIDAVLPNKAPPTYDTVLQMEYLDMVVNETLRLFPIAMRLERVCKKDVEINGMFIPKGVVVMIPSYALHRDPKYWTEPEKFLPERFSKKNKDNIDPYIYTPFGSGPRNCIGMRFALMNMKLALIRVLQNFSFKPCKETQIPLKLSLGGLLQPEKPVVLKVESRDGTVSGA

[2] = cited from earlier work
[3] = test system: APPswe/PS1dE9 double transgenic AD mice; settings: AD mice 12 months of age, 0.05% in food; cited from earlier work; remark: listed apart in the source
COX2 (Human recombinant) = COX2 (Human recombinant) (Homo sapiens, UniProt P35354); assay: COX2 inhibition; type: biochemical
COX2 (Human recombinant), sequence (P35354 18-604): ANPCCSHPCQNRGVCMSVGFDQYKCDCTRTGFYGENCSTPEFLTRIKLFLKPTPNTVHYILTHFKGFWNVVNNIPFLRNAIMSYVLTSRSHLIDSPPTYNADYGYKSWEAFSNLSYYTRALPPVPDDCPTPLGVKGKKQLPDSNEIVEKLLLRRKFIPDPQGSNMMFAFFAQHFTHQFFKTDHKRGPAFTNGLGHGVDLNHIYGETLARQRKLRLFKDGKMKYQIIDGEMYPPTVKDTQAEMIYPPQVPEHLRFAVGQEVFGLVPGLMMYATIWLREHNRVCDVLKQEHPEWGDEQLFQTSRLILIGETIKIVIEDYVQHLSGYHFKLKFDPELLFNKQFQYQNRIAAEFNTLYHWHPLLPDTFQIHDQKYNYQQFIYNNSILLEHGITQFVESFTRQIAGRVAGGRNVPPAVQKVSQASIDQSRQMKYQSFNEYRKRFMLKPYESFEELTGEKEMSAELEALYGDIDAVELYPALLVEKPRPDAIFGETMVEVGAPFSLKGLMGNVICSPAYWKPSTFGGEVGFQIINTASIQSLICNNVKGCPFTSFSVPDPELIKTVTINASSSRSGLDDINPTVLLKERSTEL

liver microsomes = settings: ferrous sulfate/ascorbate; cited from earlier work
nerve cell = settings: of ~30 flavonoids tested; cited from earlier work
Nrf2 = settings: basal half-life ~15 min; cited from earlier work
[4] = test system: aluminum chloride toxicity in mice; settings: oral 15 mg/kg bw; cited from earlier work

For O=c1c(O)c(-c2ccc(O)c(O)c2)oc2cc(O)ccc12 [fisetin, 3,3′,4′,7-tetrahydroxyflavone], the “differentiation of PC12 cells (neurotrophic activity)” value (PC12 cells) is listed as “promoting the differentiation of PC12 cells”, the “time in the open arms (disinhibition)” value [1] is listed as “reversed” and the “p38 MAPK and JNK activation” value (RAW264.7 macrophages) is listed as “suppresses”. For the same compound, the “inhibition of 12-LOX activity” value (12-LOX) was “effective inhibitor”, the “inhibition of cytochrome P450 2C9 activity” value (cytochrome P450 2C9) was “no inhibitory effects” and the Ames test (Ames test) was “negative”. The “inhibition of cytochrome P450 3A4 activity” value (cytochrome P450 3A4) was “no inhibitory effects”, the “Trolox equivalent antioxidant capacity (TEAC) value” [2] was ~ 3 and the “escape latency, hidden platform day 2” value [3] was “indistinguishable from that of the wild type mice”. For the same compound, the IC50 (COX2 (Human recombinant)) was over 10 µM, the “concentration decreasing lipid peroxidation” value (liver microsomes) was 1.35 µM and the “maintenance of GSH levels in the presence of oxidative stress” value (nerve cell) was “able to maintain GSH levels”. The “increase of Nrf2 half-life” value (Nrf2) was ~ 2 fold and the “loss of total GSH from cortex and hippocampus” value [4] was “greatly reduce the loss of total GSH”.
